Assay [1] in a line: Rat Forced Swim Test (FST). In kind it is in vivo. The following applies: for Reduction in immobility: single dose 30 min before test. An excerpt:
The Forced Swim Test (FST) is a classic, and the most used preclinical behavioral assay to screen compounds with antidepressant-like activity and has high predictive and face validity (Porsolt et al. (1977) Nature 266:730; Borsini and Meli (1988) Psychopharmacology 94:147). The premise of the FST is that when rats are placed into a cylinder filled with water, they will initially try to escape, but over time will become immobile. This increased immobility reflects behavioral despair, modeling a depressive-like state.
Forced Swim Test (EST): In the FST trial, rats were placed in a circular plexiglass container filled with water, with no means of escape. Water temperature was maintained at 22-25° C. and changed for every animal. After an acclimation period, rats were timed for inactivity (failure to struggle), activity, swim time and climbing time. Day 1 consisted of a 15 min acclimation trial, and Day 2 (24 h later) consisted of the 5 min test. A time sampling procedure was employed where animals were observed every 5 sec and scored for immobility, swimming, or climbing. Fluoxetine (10 mg/kg, IP, Sigma Aldrich) or 0.9% sterile saline vehicle (vehicle 3× group) were administered 23.5, 5, and 1 h before testing in the FST. […] The experimenter was blinded to treatment.
Forced Swim Test: In the FST trial, rats were placed in a circular plexiglass container filled with water, with no means of escape. Water temperature was maintained at 22-25° C. and changed for every animal. After an acclimation period, rats were timed for inactivity (failure to struggle), activity, swim time and climbing time. Day 1 consisted of a 15 min acclimation trial, and Day 2 (24 h later) consisted of the 5 min test. A time sampling procedure was employed where animals were observed every 5 sec and scored for immobility, swimming, or climbing. Fluoxetine (10 mg/kg, IP, Sigma Aldrich) or 0.9% sterile saline vehicle (vehicle 3× group) were administered 23.5, 5, and 1 h before testing in the FST. 2C-B (2.5, 10, or 20 mg/kg, IP, Cayman Chemical) or 0.9% saline vehicle (vehicle 1× group) were administered 30 min prior to FST testing. The experimenter was blinded to treatment.
Drug Treatment: Fluoxetine (10 mg/kg, IP, Sigma Aldrich) or 0.9% sterile saline vehicle were administered 23.5, 5, and 1 h before testing in the FST. […] Control animals received fluoxetine alone, methylone alone, or saline vehicle.
Forced Swim Test: In the FST trial, rats were placed in a circular plexiglass container filled with water, with no means of escape. Water temperature was maintained at 22-25° C. and changed for every animal. After an acclimation period, rats were timed for inactivity (failure to struggle), activity, swim time and climbing time. The experimenter and scorer were blind to treatment group. Day 1 consisted of a 15 min acclimation trial, and Day 2 (24 h later) consisted of the 5 min test. A time sampling procedure was employed where animals were observed every 5 sec and scored for immobility, swimming, or climbing.
The FST was performed and scored by an experimenter blind to treatment group according to standard protocols and based on a “modified FST” procedure (Slattery and Cryan (2012) Nat Protoc, 7:1009). Briefly, rats were placed in a circular plexiglass container (29.2 cm diameter, 49.5 cm height) filled with water to a depth of 30 cm so rats could not support themselves by touching the bottom of the tank. Water was maintained at 22-25° C. and was changed for every animal. Day 1 (Training) consisted of a 15 min acclimation trial, and Day 2 (Testing, 24 h later) consisted of the 5 min test. A time sampling procedure was employed where animals were observed every 5 seconds for the duration of the test session (60 counts or 5 minutes) and scored for immobility (defined as the failure to struggle), swimming (defined as a circular movement around the tank), or climbing (defined as an upwards escape behavior). […]

Assay [2] is described as follows: Mouse fear extinction paradigm (PTSD model). In kind it is in vivo. The following applies: 30 mg/kg IP 30 min before extinction training; day 3. The source says: (FIG. 9A) Schematic of experimental design. A single CS-US (tone-shock) pairing on day 1 was followed by 6 CS presentations in a novel context (context B). […] On day 3, the time spent freezing to the CS was quantified. […] (FIG. 9C) No locomotor changes were observed on day 3 (t(26)=1.073, p>0.05). Data are mcan+/−SEM.
FIGS. 10A-10B: MBDB improves fear extinction in a PTSD mouse model. A single CS-US (tone-shock) pairing on day 1 was followed by 6 conditioned stimulus (CS) presentations in a novel context (context B). MBDB or saline vehicle was injected 30 min prior to extinction training on day 2. The time spent freezing to the CS was quantified on day 2. […] Data are mean+/−SEM. N=10 for MBDB group (5 mg/kg, IP) and N=16 for saline control group. **p<0.01 vs. vehicle control group.
Effective PTSD treatments facilitate the disassociation between a traumatic memory and the patient's fear response, making cues for the traumatic memory evoke less of a fear response. This is modeled in the mouse fear extinction paradigm (see FIG. 9A) which takes place over 3 days. […] On day 3 (extinction recall), the mice are “asked” if that tone (CS) still elicits a fearful response, as measured by the time spent freezing when the tone is presented. […]

A short description of assay [3]: Open field test (OFT). In kind it is in vivo, rat. To be noted: 5 or 15 mg/kg IP, 30 minutes before testing. As to the method: Method: Consecutive beam breaks and/or video-tracking of time spent in the center versus periphery of the open field are measured. Also measured are parameters such as distance traveled and ambulatory activity (horizontal and vertical) for the duration of the test session.
The open field test (OFT) capitalizes on a rodent's innate fear of open spaces to assess anxiety-like behavior. More time spent in the center of an open field reflects an anxiolytic (anti-anxiety) effect.
Locomotor activity was also measured in the OFT.
To investigate whether MBDB has an anti-anxiety (anxiolytic) effect, rats were dosed with MBDB (0.5-30 mg/kg, IP) or vehicle (saline) and 30-minutes later were tested in the open field for 30 minutes. This anxiety test capitalizes on a rodents' innate fear of wide-open spaces and propensity to hug the walls when placed into the open field. Therefore, a drug that increases the time spent in the center of the open field has anxiolytic activity and predicts utility for treating anxiety in humans.

The target of assay [4] is DAT (Rattus norvegicus, UniProt P23977). Description: [3H]DA uptake inhibition in rat brain synaptosomes. To be noted: read-out: Reuptake inhibition: IC50; rat brain synaptosomes.
Chain of DAT (P23977 whole entry): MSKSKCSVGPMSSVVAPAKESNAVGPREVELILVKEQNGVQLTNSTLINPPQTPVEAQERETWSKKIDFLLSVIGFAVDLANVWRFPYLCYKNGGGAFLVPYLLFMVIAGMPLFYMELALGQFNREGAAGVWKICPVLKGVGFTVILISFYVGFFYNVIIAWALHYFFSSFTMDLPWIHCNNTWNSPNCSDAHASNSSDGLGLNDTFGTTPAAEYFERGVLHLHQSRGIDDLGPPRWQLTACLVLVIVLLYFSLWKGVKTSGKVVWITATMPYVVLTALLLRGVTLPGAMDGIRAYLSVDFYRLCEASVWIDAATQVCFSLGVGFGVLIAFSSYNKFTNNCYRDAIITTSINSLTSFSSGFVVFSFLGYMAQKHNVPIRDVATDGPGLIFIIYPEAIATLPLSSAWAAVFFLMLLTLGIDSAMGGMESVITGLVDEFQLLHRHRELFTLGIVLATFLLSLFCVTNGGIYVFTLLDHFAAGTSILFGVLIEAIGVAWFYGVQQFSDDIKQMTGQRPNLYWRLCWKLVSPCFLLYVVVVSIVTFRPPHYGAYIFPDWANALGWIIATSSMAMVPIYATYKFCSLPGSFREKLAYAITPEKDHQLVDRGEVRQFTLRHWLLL

With `CNC(C)C(=O)c1ccc2c(c1)OCO2` (stereo not shown) [Methylone, 3,4-methylenedioxy-N-methylcathinone], the Reduction in immobility turned out to be 99% in assay [1] (15 mg/kg IP) and 96% in assay [1] (30 mg/kg IP). In addition, the “Antidepressant-like effect vs. vehicle” value in assay [1] (15 mg/kg PO, 2 hours before test) is given as “significant antidepressant-like effect”. In addition, the results for the “Reduced immobility vs. vehicle” value in assay [1] (Methylone 5 mg/kg IP after three prior doses of fluoxetine 10 mg/kg) and in assay [1] (Methylone alone 5 mg/kg IP (Example 8)) were 62% and 71%, respectively. Also, the Climbing behavior result was “significantly increased climbing behavior” in assay [1] (doses as worded) and “Climbing was only increased at the lowest dose of methylone” in assay [1] (doses as worded, listed as methylone). The Swimming behavior result in assay [1] (doses as worded) was “Mid and high doses of methylone significantly increased swimming”. In addition, the “Antidepressant-like effect of multiple lower doses” value in assay [1] (four […] IP doses 20.5, 8.5, 4.5, 0.5 h before test) was “significant antidepressant-like effects”. Further, the “Immobility vs. saline vehicle” value in assay [1] (single dose 5, 10, 15, 20 and 30 mg/kg IP, 30 min before test) is recorded as “significantly reduced immobility”. Also, in assay [2], the “Enhancement of fear extinction recall vs. saline controls” value is ~60%. In assay [3], the “Time spent in the center of the open field vs. vehicle” value is given as “significantly increases the time spent in the center of the open field”. Besides, the IC50 (usually the point on the concentration scale where inhibition reaches its midpoint) in assay [4] stood at 2300 nM.

These data come from patent publication US12295937B2, “Psychoactive medicines and their use for treating psychiatric and neurological conditions and disorders” (Transcend Therapeutics, Inc., priority 2021, dated 2025).
